Assay results taken from ChEMBL document CHEMBL5506046, “Discovery of LLC355 as an Autophagy-Tethering Compound for the Degradation of Discoidin Domain Receptor 1” (J Med Chem, 2024).
Each block holds one molecule with its values, some of them ahead of it. Calls of active or inactive are those of the source. The calls are words filed in the database; no cut-off is given here.

Columns and labels:
[1] = target: T1, LC3/Epithelial discoidin domain-containing receptor 1 (Homo sapiens, UniProt Q08345+Q9BXW4+Q9GZQ8+Q9H492); test: Autophagosome tethering activity at DDR1 in human NCI-H23 cells assessed as protein degradation at 0.3 uM measured after 24 hrs by immunoblotting analysis relative to control; type: cell-based
[2] = target: T1, LC3/Epithelial discoidin domain-containing receptor 1; test: Autophagosome tethering activity at DDR1 in human NCI-H23 cells assessed as induction of protein degradation incubated for 12 hrs by immunoblotting analysis; type: cell-based
[3] = target: LC3/Discoidin domain-containing receptor 2 (Homo sapiens) (UniProt Q16832+Q9BXW4+Q9GZQ8+Q9H492); test: Autophagosome tethering activity at DDR2 in human NCI-H23 cells assessed as induction of protein degradation at 100 to 1000 nM incubated for 24 hrs by immunoblotting analysis; type: cell-based; settings: dose 100-1000 nM
[4] = target: T1, LC3/Epithelial discoidin domain-containing receptor 1; test: Autophagosome tethering activity at DDR1 in human NCI-H23 cells assessed as induction of protein degradation at 1 uM by immunoblotting analysis; type: cell-based; settings: time 1-24 hrs, TDE = time-dependent effect
[5] = target: T1, LC3/Epithelial discoidin domain-containing receptor 1; test: Autophagosome tethering activity at DDR1 in human PANC-1 cells assessed as induction of protein degradation at 100 to 1000 nM measured after 24 hrs by immunoblotting analysis; type: cell-based; settings: dose 100-1000 nM
[6] = target: T1, LC3/Epithelial discoidin domain-containing receptor 1; test: Autophagosome tethering activity at DDR1 in human MIA PaCa-2 cells assessed as induction of protein degradation at 100 to 1000 nM measured after 24 hrs by immunoblotting analysis; type: cell-based; settings: dose 100-1000 nM
[7] = test system: NCI-H23; test: Effect on DDR1 mRNA level in human NCI-H23 cells at 0.3 to 1 uM incubated for 24 hrs by qRT-PCR analysis; type: functional, cell-based; settings: dose 0.3-1 µM
[8] = Half life in Sprague-Dawley rat at 2 mg/kg, iv measured up to 24 hrs by LC-MS/MS analysis; type: ADME, organism-based; settings: in vivo
[9] = Tmax in Sprague-Dawley rat at 2 mg/kg, iv measured up to 24 hrs by LC-MS/MS analysis; type: ADME, organism-based; settings: in vivo
[10] = Cmax in Sprague-Dawley rat at 2 mg/kg, iv measured up to 24 hrs by LC-MS/MS analysis; type: ADME, organism-based; settings: in vivo
[11] = AUC(0 to t) in Sprague-Dawley rat at 2 mg/kg, iv measured up to 24 hrs by LC-MS/MS analysis; type: ADME, organism-based; settings: in vivo
[12] = Clearance in Sprague-Dawley rat at 2 mg/kg, iv measured up to 24 hrs by LC-MS/MS analysis; type: ADME, organism-based; settings: in vivo
[13] = Half life in Sprague-Dawley rat at 10 mg/kg, po measured up to 24 hrs by LC-MS/MS analysis; type: ADME, organism-based; settings: in vivo
[14] = Tmax in Sprague-Dawley rat at 10 mg/kg, po measured up to 24 hrs by LC-MS/MS analysis; type: ADME, organism-based; settings: in vivo
[15] = Cmax in Sprague-Dawley rat at 10 mg/kg, po measured up to 24 hrs by LC-MS/MS analysis; type: ADME, organism-based; settings: in vivo
[16] = AUC(0 to t) in Sprague-Dawley rat at 10 mg/kg, po measured up to 24 hrs by LC-MS/MS analysis; type: ADME, organism-based; settings: in vivo
[17] = Oral bioavailability in Sprague-Dawley rat at 10 mg/kg measured up to 24 hrs by LC-MS/MS analysis; type: ADME, organism-based; settings: in vivo
[18] = target: T1, LC3/Epithelial discoidin domain-containing receptor 1; test: Autophagosome tethering activity at DDR1 in human NCI-H23 cells assessed as induction of protein degradation at 1 uM measured for 1 to 24 hrs in presence of cycloheximide by immunoblotting analysis; type: cell-based; settings: time 1-24 hrs
[19] = target: T1, LC3/Epithelial discoidin domain-containing receptor 1; test: Autophagosome tethering activity at DDR1 in human NCI-H23 cells assessed as induction of protein degradation at 1 uM pretreated for 24 hrs followed by medium replacement with compound-free medium measured for 12 hrs by Western blot analysis; type: cell-based
[20] = target: T1, LC3/Epithelial discoidin domain-containing receptor 1; test: Autophagosome tethering activity at DDR1 in human NCI-H23 cells assessed as induction of protein degradation at 1 uM measured for >48 hrs by Western blot analysis; type: cell-based
[21] = target: T1, LC3/Epithelial discoidin domain-containing receptor 1; test: Autophagosome tethering activity at DDR1 in bafilomycin A1-treated human NCI-H23 cells assessed as induction of protein degradation at 1 uM incubated for 12 hrs by Western blot analysis; type: cell-based
[22] = target: T1, LC3/Epithelial discoidin domain-containing receptor 1; test: Autophagosome tethering activity at DDR1 in chloroquine-treated human NCI-H23 cells assessed as induction of protein degradation at 1 uM incubated for 12 hrs by Western blot analysis; type: cell-based
[23] = target: T1, LC3/Epithelial discoidin domain-containing receptor 1; test: Autophagosome tethering activity at DDR1 in rapamycin-treated human NCI-H23 cells assessed as induction of protein degradation at 0.3 uM incubated for 12 hrs by Western blot analysis; type: cell-based
[24] = target: T1, LC3/Epithelial discoidin domain-containing receptor 1; test: Autophagosome tethering activity at DDR1 in human NCI-H23 cells assessed as induction of protein degradation at 10 uM incubated for 6 hrs by Western blot analysis; type: cell-based
[25] = target: T1, LC3/Epithelial discoidin domain-containing receptor 1; test: Autophagosome tethering activity at DDR1 in human NCI-H23 cells assessed as induction of protein degradation at 10 uM incubated for 6 hrs by TMT-based global proteomic profiling analysis; type: cell-based
[26] = test system: NCI-H23; test: Downregulation of CDCA7 expression in human NCI-H23 cells at 10 uM incubated for 6 hrs by Western blot analysis; type: functional, cell-based
[27] = test system: NCI-H23; test: Downregulation of LIPA expression in human NCI-H23 cells at 10 uM incubated for 6 hrs by Western blot analysis; type: functional, cell-based
[28] = test system: NCI-H23; test: Downregulation of PPIC expression in human NCI-H23 cells at 10 uM incubated for 6 hrs by Western blot analysis; type: functional, cell-based
[29] = test system: NCI-H23; test: Downregulation of REEP3 expression in human NCI-H23 cells at 10 uM incubated for 6 hrs by Western blot analysis; type: functional, cell-based
[30] = test system: NCI-H23; test: Downregulation of RBM3 expression in human NCI-H23 cells at 10 uM incubated for 6 hrs by Western blot analysis; type: functional, cell-based
[31] = test system: NCI-H23; test: Downregulation of BNIP3 expression in human NCI-H23 cells at 10 uM incubated for 6 hrs by Western blot analysis; type: functional, cell-based
[32] = test system: NCI-H23; test: Downregulation of GOLM1 expression in human NCI-H23 cells at 10 uM incubated for 6 hrs by Western blot analysis; type: functional, cell-based
[33] = test system: NCI-H23; test: Downregulation of CDK4 expression in human NCI-H23 cells at 10 uM incubated for 6 hrs by Western blot analysis; type: functional, cell-based
[34] = test system: NCI-H23; test: Downregulation of EXO1 expression in human NCI-H23 cells at 10 uM incubated for 6 hrs by Western blot analysis; type: functional, cell-based
[35] = test system: NCI-H23; test: Inhibition of cell migration in human NCI-H23 cells at 0.3 uM incubated for 24 hrs by transwell assay; type: functional, cell-based
[36] = test system: NCI-H23; test: Inhibition of cell invasion in human NCI-H23 cells at 0.3 uM incubated for 24 hrs by transwell assay; type: functional, cell-based
[37] = test system: NCI-H23; test: Induction of apoptosis in human NCI-H23 cells assessed as increase in cleaved PARP level at 0.3 uM incubated for 24 hrs by Western blot analysis; type: functional, cell-based
[38] = test system: NCI-H23; test: Induction of apoptosis in human NCI-H23 cells assessed as increase in cleaved PARP level at 1 uM incubated for 24 hrs by Western blot analysis; type: functional, cell-based
[39] = test system: NCI-H23; test: Inhibition of tumorigenicity in human NCI-H23 cells at 0.1 to 1 uM incubated for 10 days by colony formation assay; type: functional, cell-based; settings: dose 0.1-1 µM, time 10.0 day
[40] = Toxicity in Sprague-Dawley rat at 10 mg/kg, po or 2 mg/kg, iv measured up to 24 hrs by LC-MS/MS analysis; type: organism-based; settings: in vivo
[41] = Toxicity in Sprague-Dawley rat assessed as drug tolerance at 10 mg/kg, po or 2 mg/kg, iv measured up to 24 hrs by LC-MS/MS analysis; type: organism-based; settings: in vivo

Compound: CCc1ccc(C(=O)Nc2cc(CN3CCN(C(=O)COCCOCCOCCNC(=O)COc4c(Br)cc(/C=C5\C(=O)Nc6ccc(I)cc65)cc4Br)CC3)cc(C(F)(F)F)c2)cc1C#Cc1cnc2ccnn2c1
- Activity [1]: 0%

Compound: CCc1ccc(C(=O)Nc2cc(CN3CCN(CCOCC(=O)NCCCN(C(=O)c4ccc(C)cc4)[C@@H](c4nc5cc(Cl)ccc5c(=O)n4Cc4ccccc4)C(C)C)CC3)cc(C(F)(F)F)c2)cc1C#Cc1cnc2ccnn2c1
- Activity [1]: 40%
- DC50 [2]: 151 nM
- Activity ([2]; dose 1-10000 nM): Dose-Dependent Effect
- Activity [3]: inactive
- Activity [4]: Tde
- Activity [5]: Active
- Activity [6]: Active
- Activity [7]: inactive
- half-life [8]: 191 min
- Tmax [9]: 4.8 min
- Cmax [10]: 27000 ng/mL
- AUC(0-t) at 24 h [11]: 30100 ng·h/mL
- clearance [12]: 1.11 mL/min/kg
- half-life [13]: 239 min
- Tmax [14]: 3.33 h
- Cmax [15]: 226 ng/mL
- AUC(0-t) at 24 h [16]: 1150 ng·h/mL
- bioavailability [17]: 0.77%
- Activity [18]: inactive
- Activity [19]: Active
- Activity [20]: Active
- Activity [21]: inactive
- Activity [22]: inactive
- Activity [23]: Active
- Activity [24]: Active
- Activity [25]: Active
- Activity [26]: Active
- Activity [27]: Active
- Activity [28]: Active
- Activity [29]: Active
- Activity [30]: Active
- Activity [31]: Active
- Activity [32]: Active
- Activity [33]: Active
- Activity [34]: Active
- inhibition [35]: Active
- inhibition [36]: Active
- Activity [37]: inactive
- Activity [38]: Active
- inhibition [39]: Active
- Activity [40]: Non-Toxic
- Activity [41]: Non-Toxic

Compound: CCc1ccc(C(=O)Nc2cc(CN3CCN(C(=O)COc4c(Br)cc(/C=C5\C(=O)Nc6ccc(I)cc65)cc4Br)CC3)cc(C(F)(F)F)c2)cc1C#Cc1cnc2ccnn2c1
- Activity [1]: 4%

Compound: CCc1ccc(C(=O)Nc2cc(CN3CCN(CC(=O)NCCCN(C(=O)c4ccc(C)cc4)[C@@H](c4nc5cc(Cl)ccc5c(=O)n4Cc4ccccc4)C(C)C)CC3)cc(C(F)(F)F)c2)cc1C#Cc1cnc2ccnn2c1
- Activity [1]: 4%

Compound: CCc1ccc(C(=O)Nc2cc(CN3CCN(C(=O)CCCCCNC(=O)COc4c(Br)cc(/C=C5\C(=O)Nc6ccc(I)cc65)cc4Br)CC3)cc(C(F)(F)F)c2)cc1C#Cc1cnc2ccnn2c1
- Activity [1]: 12%

More lines, now with the values ahead:

- Activity [1]: 9%
Compound: CCc1ccc(C(=O)Nc2cc(CN3CCN(C(=O)COCCOCCNC(=O)COc4c(Br)cc(/C=C5\C(=O)Nc6ccc(I)cc65)cc4Br)CC3)cc(C(F)(F)F)c2)cc1C#Cc1cnc2ccnn2c1

- Activity [1]: 17%
Compound: CCc1ccc(C(=O)Nc2cc(CN3CCN(C(=O)CCCNC(=O)COc4c(Br)cc(/C=C5\C(=O)Nc6ccc(I)cc65)cc4Br)CC3)cc(C(F)(F)F)c2)cc1C#Cc1cnc2ccnn2c1

- Activity [1]: 9%
Compound: CCc1ccc(C(=O)Nc2cc(CN3CCN(C(=O)CCCCCCCNC(=O)COc4c(Br)cc(/C=C5\C(=O)Nc6ccc(I)cc65)cc4Br)CC3)cc(C(F)(F)F)c2)cc1C#Cc1cnc2ccnn2c1

- Activity [1]: 6%
Compound: CCc1ccc(C(=O)Nc2cc(CN3CCN(CCCC(=O)NCCCN(C(=O)c4ccc(C)cc4)[C@@H](c4nc5cc(Cl)ccc5c(=O)n4Cc4ccccc4)C(C)C)CC3)cc(C(F)(F)F)c2)cc1C#Cc1cnc2ccnn2c1
